This note sets out measurements from BindingDB's records for doi:10.1021/jm950932r (National Institute of Diabetes and Digestive and Kidney …, 1996).

The nature of this experiment: Compound was evaluated for inhibition of hormone stimulated Adenylate cyclase activity in N18TG2 membranes.
The compound `O=C(c1cccc2ccccc12)c1cn(CCN2CCOCC2)c2ccccc12` displayed an EC50 of 275 nM.

In turn, `Cc1c(C(=O)c2cccc3ccccc23)c2ccccc2n1CCN1CCOCC1` had an EC50 of 370 nM.

`Cc1c(C(=O)c2ccc(N=C=S)c3ccccc23)c2ccccc2n1CCN1CCOCC1` [(4-Isothiocyanato-naphthalen-1-yl)-[2-methyl-1-(2-morpholin-4-yl-ethyl)-1H-indol-3-yl]-methanone]: the midpoint of the response, the EC50, lay at 3000 nM.

Compound `O=C(c1cccc2ccccc12)c1cn(CCN2CCOCC2)c2cc(N=C=S)ccc12` [[6-Isothiocyanato-1-(2-morpholin-4-yl-ethyl)-1H-indol-3-yl]-naphthalen-1-yl-methanone] yielded an EC50 of 1100 nM.

By EC50 is commonly meant the concentration giving half of the maximal effect. Lower therefore signals an effect from little substance.
